The values below come from patent US10344032B2, “Agents for treating neurogenic inflammation and neuropathic hyperalgesia related disorders” (PÉCSI TUDOMÁNYEGYETEM, priority 2014, dated 2019).

Data set [1] deals with rat. Nature of the data set: Partial sciatic nerve ligation (Seltzer operation) mechanical hyperalgesia (Randall-Selitto test). It counts as in vivo. Conditions: 100 μg/kg p.o., 60 min; 7 days after partial sciatic nerve ligation; Randall-Sellitto test. How it is done:
Wistar rats were anaesthetised with sodium-pentobarbital (Euthasol, 50 mg/kg i.p.). The common sciatic nerve was exposed unilaterally on the right side high in the thigh and ⅓-½ of the nerve trunk was carefully separated and tightly ligated using a siliconised silk suture (Ethicone 9-0). Then the wound was closed and the animals were allowed to survive for 7 days (Seltzer et al., 1990). During this period, signs of spontaneous pain (holding the legs in elevated position), mechanical hyperalgesia and allodynia developed.
Mechanonociceptive threshold of the hindpaws was measured with analgesimetry (Randall-Sellitto test) and touch sensitivity of the plantar surface with dynamic plantar aesthesiometry on the same animals. Hyperalgesia (decrease of the mechanonociceptive threshold) and allodynia (decrease of touch sensitivity) were expressed in % compared to the initial pre-operation control values. Significant decrease of the mechanonociceptive thresholds, as well as touch sensitivity thresholds developed 7 days after the surgery (Szolcsanyi et al. 2003; Sandor et al. 2006). […]
b) The mechanonociceptive thresholds of the hindpaw was measured with the Ugo Basile Analgesimeter (7210, Comerio, Italy; Randall-Selitto test). […] The threshold force which elicited withdrawal was read on an analog scale calibrated in grams. […]

Data set [2] concerns rat. In words: Plantar incision-induced mechanical allodynia (dynamic plantar aesthesiometer), postoperative pain model. It counts as in vivo. Conditions: 100 μg/kg p.o., measured 60 min later; one day after plantar incision; dynamic plantar aesthesiometry. The procedure: Rats were anaesthesized with sodium-pentobarbital (Euthasol, 40 mg/kg i.p.) and a 1 cm longitudinal incision was made through the skin, fascia and muscle of the plantar aspect of the hindpaw. Significant decrease of both the thermonociceptive and mechanonociceptive thresholds (heat and mechanical allodynia) of the paw develops 1 day after this procedure.
One hundred and forty five (145) female Wistar rats (150-250 g) kept in the Animal House of the University of Pecs in a temperature-controlled room provided with a 12-hour light-dark cycle, standard rat chow and water ad libitum were used in this experimental series. They were brought to the air-conditioned laboratory the day before the experiment started. Throughout the total study the same assistant handled all the animals. […] Touch sensitivity was measured with a dynamic plantar aesthesiometer (DPA) and the thermonociceptive threshold was determined with an increasing temperature water-bath (ITWB) on the same rats (see below). […] Test compounds were administered p.o. and post-dose touch sensitivity and thermonociceptive thresholds were measured 60 min later. […]
a) Touch sensitivity of the plantar surface of the paw was measured with the Ugo Basile Dynamic Plantar Aesthesiometer (DPA; 37400, Comerio, Italy), which is an electronic von Frey device. […]

For data set [3], the system named is sensory nerve terminals of isolated rat tracheae. In words: Electrical field stimulation-induced release of CGRP from sensory nerve terminals of isolated rat tracheae. Conditions: 500 nM; absolute release = stimulated + post-stimulated fractions minus basal release. How it is done: Rats were exsanguinated in deep anaesthesia (sodium thiopental, 50 mg/kg i.p.), then the whole trachea was removed and cleaned of fat and adhering connective tissues. Tracheae from two rats were placed into the same 1.8 ml organ bath to obtain sufficient amount of released peptide and perfused (1 ml/min) with pH—(7.2) controlled oxygenized Krebs solution for 60 minutes (equilibration period) at 37° C. temperature. After discontinuation of the flow, the solution was changed three times for 8 minutes to produce pre-stimulated, stimulated, post-stimulated fractions. Electrical field stimulation (40 V, 0.1 ms, 10 Hz for 120 s; 1200 pulses) was performed to elicit neurotransmitter release at the beginning of the second 8-minute period. […]
CGRP concentration was determined from 400-400 μl samples of the organ bath solutions by means of a selective and sensitive radioimmunoassay method developed in our laboratories and described in details in several previous papers (Nemeth et al. 1998, 1999, 2006; Helyes et al., 1997, 2001, 2006; Borzsei et al., 2008). The released amount of the peptides was calculated as fmol peptide per mg wet tissue (trachea). The absolute EFS-induced CGRP outflow in each experiment was calculated by taking off the basal release measured in the first (pre-stimulated) fraction from the second and third 8-min fractions and then adding these values. […]

A further data set addresses T1, sst4 receptor (Homo sapiens, UniProt P31391).
T1 construct: expressed in transfected cells
In words: Somatostatin sst4 receptor-coupled G-protein activation assay ([35S]GTPγS binding). The format is biochemical. Conditions: 100 nM concentration; membrane fractions of CHO cells stably expressing the sst4 receptor; percentage over specific binding in absence of agonists. An excerpt: [^35S]GTPγS binding assay is a functional test determining agonist-induced and receptor-mediated G-protein activation which is based on the increase in guanine nucleotide exchange at G-proteins upon agonist stimulation. The interaction of a G protein-coupled receptor (GPCR) with the G protein is the first step in the transduction of the receptor binding signal to the activation of the second-messenger systems. We measured the level of [^35S]-GTPγS bound to the α subunit of G proteins and determined the efficacy of the compounds. Compounds which elicited 200% [^35S]GTPγS binding in nanomolar concentration were considered effective agonist. The examined compounds were added into the medium in 1 nM, 10 nM, 100 nM 1 μM and 10 μM concentrations.
Membrane fractions were prepared from CHO cells stably expressing the sst4 receptor in Tris-EGTA buffer (50 mM Tris-HCl, 1 mM EGTA, 3 mM MgCl2, 100 mM NaCl, pH 7.4). These membrane fractions (˜10 μg of protein/sample) were incubated at 30° C. for 60 min in the same Tris-EGTA buffer containing [^35S]GTPγS (0.05 nM) and increasing concentrations (10^−9 to 10^−5 M) of test compounds in the presence of 30 μM GDP in a final volume of 500 μl. Non-specific binding was determined in the presence of 10 μM unlabelled GTPγS. Total binding was measured in the absence of test compounds. To calculate the specific binding, non-specific binding was subtracted from total binding. The reaction was terminated by filtrating the samples through Whatman GF/B glass fiber filters. Using 48-well Slot Blot Manifold from Cleaver Scientific filters were washed three times with ice-cold 50 mM Tris-HCl buffer (pH 7.4). After drying for 60 min at 37° C., radioactivity was measured in scintillation liquid in a Packard Tri-Carb 2800 TR scintillation counter. Test compound-induced G-protein stimulation was given as percentage over the specific [^35S]GTPγS binding observed in the absence of agonists.

T1 sequence (P31391 whole entry): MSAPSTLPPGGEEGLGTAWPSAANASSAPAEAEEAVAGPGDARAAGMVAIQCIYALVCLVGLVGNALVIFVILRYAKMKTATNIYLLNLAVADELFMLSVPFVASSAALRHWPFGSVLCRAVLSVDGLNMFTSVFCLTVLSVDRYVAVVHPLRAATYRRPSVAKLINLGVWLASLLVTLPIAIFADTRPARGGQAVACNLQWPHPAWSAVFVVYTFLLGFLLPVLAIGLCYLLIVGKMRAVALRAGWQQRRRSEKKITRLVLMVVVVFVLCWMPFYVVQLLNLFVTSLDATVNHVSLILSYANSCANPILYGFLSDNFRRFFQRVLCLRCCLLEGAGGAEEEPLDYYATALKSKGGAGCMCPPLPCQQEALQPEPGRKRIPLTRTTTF

`Cc1c(C)n(Cc2ccccc2)c2ncnc(NCCc3ccc(O)cc3)c12` [Example 4, 4-[2-(7-Benzyl-5,6-dimethyl-7H-pyrrolo[2,3-d]pyrimidin-4-ylamino)-ethyl]-phenol] registered a melting point of 198 to 199 °C. Further, the “reduction of mechanical hyperalgesia” value in the data set with rat [1] was 46%.
For `Cc1c(C)n(Cc2ccccc2)c2ncnc(NCCc3cccc(Cl)c3)c12` [Example 39, (7-Benzyl-5,6-dimethyl-7H-pyrrolo[2,3-d]pyrimidin-4-yl)-[2-(3-chloro-phenyl)-ethyl]-amine], in that order: 205 to 207 °C and 31%.
`CC(=O)Nc1ccc(CCNc2ncnc3c2c(C)c(C)n3CCCN(C)C)cc1` [Example 51, N-(4-{2-[7-(3-Dimethylamino-propyl)-5,6-dimethyl-7H-pyrrolo[2,3-d]pyrimidin-4-ylamino]-ethyl}-phenyl)-acetamide] returned a melting point of 132.7 to 133.7 °C. In the data set on rat [2], the “decrease of mechanical allodynia” value amounted to 63%. The “inhibition on the absolute CGRP release” value in data set [3] was found to be 79.55%.
With `COc1cccc(CCNc2ncnc3c2c(C)c(C)n3Cc2ccccc2)c1` [Example 40, (7-Benzyl-5,6-dimethyl-7H-pyrrolo[2,3-d]pyrimidin-4-yl)-[2-(3-methoxy-phenyl)-ethyl]-amine], the melting point lay within 185 to 187.2 °C. In addition, the “[35S]GTPγS binding (G-protein activation)” value (shortened to “[35S]GTPγS binding”) on sst4 receptor amounted to 202.67%.
Take `Cc1c(C)n(Cc2ccccc2)c2ncnc(NCCc3cccc(O)c3)c12` [Example 58, 3-[2-(7-Benzyl-5,6-dimethyl-7H-pyrrolo[2,3-d]pyrimidin-4-ylamino)-ethyl]-phenol]: the melting point lay in the range of 208.7 to 209.2 °C. In the data set with rat [2], the “decrease of mechanical allodynia” value amounted to 64.7%. For the same compound, the “[35S]GTPγS binding” value at sst4 receptor was determined as 194.5%.
`COc1ccc(CCNc2ncnc3c2c(C)c(C)n3CCCN(C)C)cc1` [Example 41, [7-(3-Dimethylamino-propyl)-5,6-dimethyl-7H-pyrrolo[2,3-d]pyrimidin-4-yl]-[2-(4-methoxy-phenyl)-ethyl]-amine]: the “[35S]GTPγS binding” value at sst4 receptor is 207.67%.
As for `COc1ccc(CCNc2ncnc3c2c(C)c(C)n3Cc2ccccc2)cc1` [Example 2, (7-Benzyl-5,6-dimethyl-7H-pyrrolo[2,3-d]pyrimidin-4-yl)-[2-(4-methoxy-phenyl)-ethyl]-amine], the melting point was in the range of 100 to 101.9 °C. The “inhibition on the absolute CGRP release” value in data set [3] is reported as 72.5%. In addition, the “[35S]GTPγS binding” value on sst4 receptor was 245.67%.
`Cc1c(C)n(Cc2ccccc2)c2ncnc(NCCc3ccc(NC(=O)Nc4ccc(F)cc4F)cc3)c12` [Example 7, 1-{4-[2-(7-Benzyl-5,6-dimethyl-7H-pyrrolo[2,3-d]pyrimidin-4-ylamino)-ethyl]-phenyl}-3-(2,4-difluoro-phenyl)-urea] showed a melting point of 208 to 209.2 °C.
